Data on one compound can be found in ChEMBL document CHEMBL4602703, “Lead Optimization of a Pyrrole-Based Dihydroorotate Dehydrogenase Inhibitor Series for the Treatment of Malaria” (J Med Chem, 2020).

≈ marks a conversion by molar mass, not a printed value.

The target of one data set is Cytochrome P450 2C19 (Homo sapiens, UniProt P33261). As to the kind of experiment: Time-dependent inhibition of CYP2C19 in human liver microsomes using (S)-mephenytoin as substrate in absence of NADPH regenerating system by UPLC-MS analysis. In kind it is ADME.
For data set [1] the following is noted: simulated gi fluid, pH 5.8.
A further data set has as its target Cytochrome P450 2C9 (Homo sapiens, UniProt P11712). Kind of data set: Time-dependent inhibition of CYP2C9 in human liver microsomes using tolbutamide as substrate in presence of NADPH regenerating system by UPLC-MS analysis. In kind it is ADME. On the technique in general: Liver microsomes are vesicles of endoplasmic reticulum, rich in cytochrome P450 enzymes.

A further data set deals with Cytochrome P450 2D6 (Homo sapiens, UniProt P10635). Kind of data set: Time-dependent inhibition of CYP2D6 in human liver microsomes using dextromethorphan as substrate in absence of NADPH regenerating system by UPLC-MS analysis. In kind it is ADME.
The nature of data set [2]: Cmax in Swiss mouse blood at 18.3 mg/kg, po via gavage measured up to 24 hrs by UPLC-MS analysis. In kind it is ADME, organism-based. Set-up: dose 18.3 mg/kg, route oral. The conditions noted are these: in vivo.

Chain of Cytochrome P450 2C9 (P11712 whole entry): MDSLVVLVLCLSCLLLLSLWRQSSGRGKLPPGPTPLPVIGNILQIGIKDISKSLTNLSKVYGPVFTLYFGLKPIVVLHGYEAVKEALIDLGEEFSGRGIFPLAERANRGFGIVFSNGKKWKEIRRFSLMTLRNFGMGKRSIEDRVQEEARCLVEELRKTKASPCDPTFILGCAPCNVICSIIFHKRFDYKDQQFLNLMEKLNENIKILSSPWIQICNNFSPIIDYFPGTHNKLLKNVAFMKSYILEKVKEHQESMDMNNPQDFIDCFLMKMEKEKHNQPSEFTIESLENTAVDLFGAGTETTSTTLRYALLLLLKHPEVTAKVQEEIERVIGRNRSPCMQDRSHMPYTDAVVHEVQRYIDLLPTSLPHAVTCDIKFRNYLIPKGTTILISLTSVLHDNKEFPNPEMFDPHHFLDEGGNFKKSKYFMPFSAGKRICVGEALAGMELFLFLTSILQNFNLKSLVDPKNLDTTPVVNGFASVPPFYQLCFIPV
Chain of Cytochrome P450 2C19 (P33261 whole entry): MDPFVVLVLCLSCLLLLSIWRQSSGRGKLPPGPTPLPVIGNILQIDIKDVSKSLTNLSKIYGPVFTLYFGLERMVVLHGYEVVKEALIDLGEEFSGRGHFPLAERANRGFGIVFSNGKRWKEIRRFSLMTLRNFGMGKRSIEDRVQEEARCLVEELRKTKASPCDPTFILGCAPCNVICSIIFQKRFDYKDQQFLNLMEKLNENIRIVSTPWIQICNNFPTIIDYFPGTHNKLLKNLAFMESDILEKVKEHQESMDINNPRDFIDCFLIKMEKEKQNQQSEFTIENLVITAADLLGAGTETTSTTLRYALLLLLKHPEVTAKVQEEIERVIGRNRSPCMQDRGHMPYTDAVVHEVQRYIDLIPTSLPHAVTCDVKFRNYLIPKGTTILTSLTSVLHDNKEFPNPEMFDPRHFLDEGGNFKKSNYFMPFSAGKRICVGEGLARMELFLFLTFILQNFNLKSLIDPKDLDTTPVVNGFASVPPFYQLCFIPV
Chain of Cytochrome P450 2D6 (P10635 whole entry): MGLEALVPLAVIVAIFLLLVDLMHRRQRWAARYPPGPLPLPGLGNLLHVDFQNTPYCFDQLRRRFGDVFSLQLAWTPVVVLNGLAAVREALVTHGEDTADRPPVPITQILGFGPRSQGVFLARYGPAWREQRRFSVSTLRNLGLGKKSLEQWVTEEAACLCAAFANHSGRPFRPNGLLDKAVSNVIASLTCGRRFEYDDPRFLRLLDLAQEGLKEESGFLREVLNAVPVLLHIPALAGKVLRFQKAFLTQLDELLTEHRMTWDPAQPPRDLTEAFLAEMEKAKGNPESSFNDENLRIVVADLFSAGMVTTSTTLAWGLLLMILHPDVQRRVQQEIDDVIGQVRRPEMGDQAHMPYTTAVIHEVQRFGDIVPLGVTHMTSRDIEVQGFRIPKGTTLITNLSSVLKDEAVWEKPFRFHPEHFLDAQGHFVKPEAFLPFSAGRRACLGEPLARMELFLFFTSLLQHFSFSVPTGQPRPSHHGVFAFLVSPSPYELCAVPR

Broadly, the solubility is the concentration that dissolves in the medium under given conditions. A higher solubility goes with a readily soluble substance. One may read the Cmax as the maximum level reached in the sampled fluid or tissue. As to `Cc1c(Cc2ccc(C(F)(F)F)nc2)c[nH]c1C(=O)NC1CC1`, the values for the TDI result on Cytochrome P450 2C19, at Cytochrome P450 2C9 and on Cytochrome P450 2D6 were “Not Active”, “Not Active” and “Active”, respectively. The compound also had a solubility in data set [1] of 115 µg/mL (≈ 356 µM). For the same compound, the Cmax in data set [2] turned out to be 6.7 µM.
